Data as given in patent US20030206858A1, “Metal complex-containing pharmaceutical agents” (Schering AG, priority 1986, published 2003).

Experiment: 153Gd remaining in the rat 7 days after i.v. injection of GdDTPA/dimeglumine
Type: in vivo
Details: rats, one week after i.v. injection of GdDTPA; 10% calcium trisodium DTPA added to the contrast medium, versus no additive

reduction of the gadolinium concentration in the bones: about 45% | reduction of the portion of gadolinium remaining in the bodies: greater than 30%
Compound: O=C([O-])CN(CCN(CC(=O)[O-])CC(=O)[O-])CCN(CC(=O)[O-])CC(=O)[O-].[Ca+2].[Na+].[Na+].[Na+] [calcium trisodium DTPA, Calcium-trisodium salt of DTPA]
